# Data as given in paper PMC7416749 (Journal of genetics and genomics = Yi chuan xue bao, 2020).
# Experiments:
# [1] = tested on: dP75 IBD-containing C-terminus region (residues 209–445); assay: Isothermal titration calorimetry; assay type: binding, Drosophila; conditions: ITC, 20 °C, mutant peptides 984–1004 compared with wild type
# [2] = biological target: dP75 IBD-containing C-terminus region (residues 209–445) (Drosophila melanogaster); assay: ITC
Molecule,effect of substitution in Jil-1 peptide 984–1004 on binding to dP75 (in words) [1],Kd [2] [µM]
Jil-1 peptide from the proximal site (…; residues 984–1004),,0.8
KREENFYGFSK [Jil-1 peptide at the distal site (…; residues 1102–1112)],,120

# Other lines, results leading:
effect of substitution in Jil-1 peptide 984–1004 on binding to dP75 (in words) [1],Kd [2] [µM],Molecule
dramatically reduced the binding,,"F989A: Jil-1 peptide 984–1004 with F989A substitution (EVQADAYGFDENAPPLPLPEE; UniProt Q9V3I5 984-1004, looked up, variant F989A)"
dramatically reduced the binding,,"F992A: Jil-1 peptide 984–1004 with F992A substitution (EVQADFYGADENAPPLPLPEE; UniProt Q9V3I5 984-1004, looked up, variant F992A)"
dramatically reduced the binding,,"G991V: Jil-1 peptide 984–1004 with G991V substitution (EVQADFYVFDENAPPLPLPEE; UniProt Q9V3I5 984-1004, looked up, variant G991V)"
